The values below come from paper PMC4527731, “Calcineurin Undergoes a Conformational Switch Evoked via Peptidyl-Prolyl Isomerization” (PLoS ONE, 2015).

In experiment [1] the test system is Endogenous CN in HEK 293T cells. As to the kind of experiment: Inhibition of endogenous CN activity by CsA in NFATc-luciferase reporter assay. It is filed as cell-based. The conditions noted are these: 1 μM CsA, 30 min before stimulation with Io/PMA/Ca^2+ for 6 hours. How it is done:
Flag-hCNAα mutants were performed by PCR using CN specific primers (Table 2). ΔNIR mutant lacks the CNA PXIXIT binding region VMNIR ranging from amino acids 328 to 332. All Flag-CNA constructs bear the Y341F mutation to achieve CsA resistance unless for the specified wt. Luciferase gene assays were performed in HEK 293T cells transfected with 100 ng of 3xNFAT-luc plasmid, 100 ng of pBJ5-mCNB, 1 ng of pRLNull as an internal transfection control and 400 ng of the indicated Flag-hCNAα mutants constructs. Stimulation was achieved by treating the cells with.1 μM ionomycin, 10 nM PMA and 10 mM CaCl2. Endogenous CN activity was abolished by treating cells with 1 μM Cyclosporin A (CsA) 30 min prior to stimulation. FK506 was used as a positive control for CsA-resistant CN. After 6h of cell stimulation, 10 μl of cell extract were analyzed for luciferase gene expression using the Dual-Luciferase Reporter Assay (Promega) following the manufacturer’s protocol on a multiplate luminometer (FLUOstar Optima, BMG). Luciferase units were normalized to densitometric data of 10 μl of cell extract analyzed by western blot. Absence of cell stimulation is shown with a minus symbol (-). Three experiments were performed with triplicates. Stimulation of the Y341F mutant was considered as 100% value.
For orientation: Reporter assays use an easily measured gene product as a stand-in for the process of interest.

The subject of experiment [2] is CNA (human CNAα catalytic domain). As to the kind of experiment: Fluorescence polarization competition of CF-SPRIEIT-CNA complex. It is filed as binding. The note with it: 10 nM CF-labeled SPRIEIT, 10 μM CNA, unlabeled competitor pre-incubated 15 min at increasing concentrations, room temperature, ex 485 nm, em 535 nm, two independent experiments in triplicates (Fig 6a). On the procedure: Peptides were purchased from the Peptide 2.0 Company (Chantilly, VA) and synthesized as acetylated N-terminal and C-terminal amides for the unlabeled peptides and N-carboxyfluorescein (CF) and C-terminal amide for the labelled peptide. The sequences of the peptides used are the following: […] for the RCAN^183–203 peptide; […] for the cis-CNA derived peptide; and […] for the NFATc2-SPRIEIT (SPRIEIT) peptide. All peptides were resuspended in 100% DMSO at 10 mM. Cyclosporin A (CsA) was obtained from Sandoz. Ionomycin (Io) sodium salt and Phorbol 12-myristate 13-acetate sodium salt (PMA) were obtained from Sigma. The anti-calcineurin A antibody was purchased from BD Biosciences and the anti-Flag M2 antibody was purchased from Sigma. The protease and phosphatase inhibitor cocktails were from Calbiochem.
Expression, purification and isolation of the CNAα domain was performed as previously described. […]
Competition assays were performed as described. […] Unlabeled competitor peptides were pre-incubated with CNA at increasing concentrations for 15 min before adding the fluorescence labeled peptide. Experiments were performed in a OptiPlate black 384-well-flat-bottom plates (PerkinElmer Life Sciences, Waltham, MA) and measured using a Wallac VICTOR (TM) X5 2030 Multilabel Reader (PerkinElmer Life Sciences) with excitation and emission wavelengths of 485 nm and 535 nm respectively. […]
A general note: Polarisation of emitted light reports the rotation of a fluorescent probe.

Experiment [3] concerns Endogenous CNA / GST-RCAN3 interaction. As to the kind of experiment: GST-RCAN3 pull-down competition assay. It is filed as binding. The note with it: HEK 293T lysate, peptide at increasing concentrations for 30 min, then GST–RCAN3 beads 90 min at 4°C (Fig 6b). How it is done:
(§1) In GST-RCAN3 pull-down competition assays, HEK 293T cells were lysed in co-immunoprecipitation buffer (50 mM Tris–HCl, pH 7.5, 100 mM NaCl, 2 mM CaCl2, 5 mM MgCl2, 1% IGEPAL, 1 mM DTT, 2 mM PMSF and protease and phosphatase inhibitor cocktails) and the CNA- and the RCAN3-derived peptides containing a PxIxIT sequence were added to the extracts at the indicated concentrations for 30 min. Then, the soluble extracts were incubated with GST–RCAN3 bound to Glutathione Sepharose beads for 90 min at 4°C. After extensive washing, co-precipitated proteins were eluted by resuspension in 2× Laemmli buffer and boiled for 10 min. For GST–NFATc2 pull-down competition assays, HEK 293T cells transfected with FLAG–CNA (2–389) were lysed in a buffer containing 50 mM Tris–HCl, pH 8, 100 mM NaCl, 1.5 mM CaCl2, 6 mM MgCl2, 0.2% TX-100, 1 mM PMSF and protease and phosphatase inhibitor cocktails. Soluble extracts were incubated with GST–NFATc2 bound to Glutathione Sepharose beads for 60 min at 4°C.

For experiment [4], the system named is Flag-CNA 2–389 / GST-NFATc2 interaction. In words: GST-NFATc2 pull-down competition assay. It is filed as binding. The note with it: HEK 293T cells transfected with FLAG–CNA (2–389); soluble extracts with GST–NFATc2 beads 60 min at 4°C; increasing peptide concentrations (Fig 6c). How it is done:
as §1

In experiment [5] the target is T1, catalytic domain of human CNAα (residues 2–347) (human, UniProt Q08209-1 2-347).
T1 construct: calcineurin catalytic subunit A, alpha isoform, human, NCBI NP_000935.1, catalytic domain residues 2-347; also called CNAα catalytic domain; trans-CNA; source: from the pGEX-6P-1-CNAα plasmid
T1 sequence (Q08209 2-347): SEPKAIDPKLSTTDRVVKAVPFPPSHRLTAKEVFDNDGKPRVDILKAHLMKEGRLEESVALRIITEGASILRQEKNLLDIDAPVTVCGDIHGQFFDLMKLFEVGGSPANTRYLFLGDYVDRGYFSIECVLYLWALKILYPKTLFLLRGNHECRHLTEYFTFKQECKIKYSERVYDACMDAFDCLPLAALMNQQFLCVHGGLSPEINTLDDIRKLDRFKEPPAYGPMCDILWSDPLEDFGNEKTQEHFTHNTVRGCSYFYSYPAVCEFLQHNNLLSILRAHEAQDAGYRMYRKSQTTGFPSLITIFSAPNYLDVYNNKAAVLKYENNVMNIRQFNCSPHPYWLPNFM
In words: fluorescence polarisation; competition: 10 nM CF-labeled SPRIEIT peptide and 10 μM CNA; unlabeled competitor peptides pre-incubated with CNA at increasing concentrations for 15 min; room temperature. The conditions noted are these: both partners purified.

As for Cyclosporin A [CsA], in experiment [1], the “endogenous CN activity after CsA treatment” value is on record as “abolished”.

In the case of “KYELHAGTESTPSVVVHVCES [R3^183-203, RCAN3-derived PxIxIT-containing peptide (amino acids 183–203)]”, the “interference with CN–SPRIEIT peptide interaction (fluorescence polarization competition)” value in experiment [2] is listed as “able to disrupt CN interaction with proteins containing a PxIxIT motif”. Further, the “interference with CN–GST-RCAN3 interaction (pull down)” value in experiment [3] is “able to disrupt CN interaction with proteins containing a PxIxIT motif”. Further, the “interference with CN–GST-NFATc2 interaction (pull down)” value in experiment [4] is on record as “able to disrupt CN interaction with proteins containing a PxIxIT motif”.

Consider NNKAAVLKYE, for which, in experiment [2], the “interference with CN–SPRIEIT peptide interaction (fluorescence polarization competition)” value is “does not interfere with high affinity interactions”. The “interference with CN–GST-RCAN3 interaction (pull down)” value in experiment [3] is reported as “does not interfere with high affinity interactions”. In experiment [4], the “interference with CN–GST-NFATc2 interaction (pull down)” value is reported as “does not interfere with high affinity interactions”.

B1: RCAN3-derived PxIxIT-containing peptide (amino acids 183–203) (peptide)
peptide: Ac-KYELHAGTESTPSVVVHVCES-NH2
notes: source: synthetic peptide, bought: Peptide 2.0 Company
For B1, the binding result in experiment [5] was “binds”.
